Patent publication US6521650B1, “Amines as pharmaceutical agents” (Pfizer, Inc., priority 1997, dated 2003)

Assays:
[1] = tested on: DBA2; assay: DBA2 % Protection; type: in vivo

| Compound | melting point [°C] | DBA2 % Protection 1 Hr [1] [%] | DBA2 % Protection 2 Hr [1] [%] |
| --- | --- | --- | --- |
| CC(C)CC(CN)Cc1noc(=S)[nH]1.Cl (centres unmarked) | 183 to 185 | – | – |
| CC(C)CC(CN)Cc1noc(=S)[nH]1 (centres unmarked) | – | 0 | 0 |
| CC(C)CC(CN)CP(=O)(O)O (centres unmarked) [PO3H2, (2-Aminomethyl-4-methyl-pentyl)-phosphonic acid] | – | 0 | 0 |
